Values quoted from earlier work, collected in patent publication US20250302745A1, “COMPOSITIONS COMPRISING VANCOMYCIN” (Arecor Limited, priority 2022, published 2025).

System: animal
Conditions: excipients of VancoReady; black box warning

Compound	finding in animal reproductive studies
CC(=O)N[C@H](C)C(=O)O [N-acetyl-D-alanine]	cause fetal malformations
PEG400	cause fetal malformations
